{
  "source": "patent US8546395B2",
  "about": "“6-cycloamino-3-(1H-pyrrolo[2,3-b]pyridin-4-yl)imidazo[1,2-b]pyridazine derivatives, preparation thereof and therapeutic use thereof” (Sanofi, priority 2008, dated 2013)",
  "key": {"[1]": {"target": "T1, human CK1 delta (Homo sapiens, UniProt P48730)", "T1 construct": "purchased Invitrogen Corporation PV3665", "T1 sequence (P48730 whole entry)": "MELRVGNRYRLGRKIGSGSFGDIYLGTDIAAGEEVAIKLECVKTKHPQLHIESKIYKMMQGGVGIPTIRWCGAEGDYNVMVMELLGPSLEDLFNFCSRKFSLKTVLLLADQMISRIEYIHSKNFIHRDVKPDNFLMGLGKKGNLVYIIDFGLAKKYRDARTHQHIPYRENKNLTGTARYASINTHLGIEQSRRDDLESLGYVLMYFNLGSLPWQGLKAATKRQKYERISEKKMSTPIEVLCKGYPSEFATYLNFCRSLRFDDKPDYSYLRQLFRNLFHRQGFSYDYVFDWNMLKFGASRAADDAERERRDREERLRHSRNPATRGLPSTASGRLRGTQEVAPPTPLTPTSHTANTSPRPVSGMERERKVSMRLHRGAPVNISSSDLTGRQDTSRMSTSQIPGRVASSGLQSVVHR", "experiment": "FRET fluorescence test (Z'Lyte kinase assay Kit), peptide substrate SER/THR 11", "type": "biochemical", "details": "peptide substrate 2 μM, ATP at 4 times the KM", "description": "The capacity of the compounds of the invention to inhibit the phosphorylation of casein by casein kinase 1 epsilon and delta may be evaluated using a FRET (“Fluorescence Resonance Energy Transfer) fluorescence test with the aid of the “Z'Lyte™ kinase assay Kit” (reference PV3670; Invitrogen Corporation™) according to the manufacturer's instructions.\nThe casein kinases 1 used are obtained from Invitrogen Corporation (human CK1 epsilon PV3500 and human CK1 delta PV3665).\nA peptide substrate, labelled at both ends with a fluorophor donor group (coumarin) and a fluorophor acceptor group (fluorescein) constituting a FRET system is phosphorylated in the presence of ATP by casein kinase 1 epsilon or delta in the presence of increasing concentrations of compounds of the invention.\nThe mixture is treated with a site-specific protease that specifically cleaves the peptide substrate to form two fluorescent fragments having a large fluorescence emission ratio.\nThe fluorescence observed is thus related to the capacity of the products of the invention to inhibit the phosphorylation of the peptide substrate by casein kinase 1 epsilon or casein kinase 1 delta.\nThe compounds of the invention are dissolved at different concentrations starting with a 10 mM stock solution in DMSO diluted in a buffer containing 50 mM HEPS, pH 7.5, 1 m MEGTA, 0.01% Brij-35, 10 mM MgCl2 for casein kinase 1 epsilon and supplemented with Trizma Base (50 mM), pH 8.0, and NaN3 (0.01% final) for casein kinase 1 delta.\nThe phosphorylation of the peptide substrate SER/THR 11 obtained from Invitrogen Corporation™ is performed at a final concentration of 2 μM. The ATP concentration is 4 times the KM, this value being 2 μM for casein kinase 1 epsilon and 4 μM for casein kinase 1 delta.\nThe emitted fluorescence is measured at wavelengths of 445 and 520 nm (excitation at 400 nm)."}, "[2]": {"test_system": "Mper1-luc Rat-1 (P2C4) fibroblasts", "experiment": "Circadian cell assay (mPer1-luciferase reporter, period prolongation)", "type": "cell-based", "details": "effective concentration that induced a 1-hour prolongation of the circadian period, interpolated from hyperbolic curve", "protocol": "Experimental Protocols for Circadian Cell Assay\nMper1-luc Rat-1 (P2C4) fibroblast cultures were prepared by dividing the cultures every 3-4 days (approximately 10-20% of confluence) on 150 cm^2 degassed polystyrene tissue culture flasks (Falcon® #35-5001) and maintained in growth medium [EMEM (Celigro #10-010-CV); 10% foetal bovine serum (FBS; Gibco #16000-044); and 50 I.U./ml of penicillin-streptomycin (Celigro #30-001-CI)] at 37° C. and under 5% CO2.\nCells obtained from Rat-1 fibroblast cultures at 30-50% of confluence as described above were co-transfected with vectors containing the selection marker for resistance to zeocin for a stable transfection and a luciferase reporter gene controlled by the mPer-1 promoter. After 24 to 48 hours, the cultures were divided on 96-well plates and maintained in growth medium supplemented with 50-100 μg/ml of zeocin (Invitrogen® #45-0430) for 10-14 days. The zeocin-resistant stable transfectants were evaluated for the expression of the reporter by adding 100 μM luciferin (Promega® #E1603®) to the growth medium and by assaying the luciferase activity on a TopCount scintillation counter (Packard Model #C384V00). The Rat-1 cell clones expressing both zeocin resistance and lucerifase activity controlled by mPer1 were serum-shock synchronized with 50% horse serum [HS (Gibco® #16050-122)] and the activity of the circadian reporter was evaluated. The P2C4 clone of Mper1-luc Rat-1 fibroblasts was selected to test the compound. Mper1-luc Rat-1 ([…]) fibroblasts at 40-50% of confluence, obtained according to the protocol described above, were plated out onto 96-well opaque tissue culture plates (Perkin Elmer® #6005680). […]\nThe period analysis was performed either by determining the interval between the relative light emission minima over several days or by Fourier transform. […] The data were analysed by adjusting a hyperbolic curve to the data expressed as change of period (y-axis) as a function of the concentration of the test compound (x-axis) in the XLfit™ software and the CE Delta (t+1 h) was interpolated from this curve."}},
  "data": [
    {"smiles": "Fc1ccc(-c2nc3ccc(N4CCC(N5CCCC5)CC4)nn3c2-c2ccnc3[nH]ccc23)cc1", "note": "[Compound 36, 2-(4-Fluorophenyl)-6-(4-pyrrolidin-1-ylpiperidin-1-yl)-3-(1H-pyrrolo[2,3-b]pyridin-4-yl)imidazo[1,2-b]pyridazine]", "values": [
      {"measurement": "IC50", "setting": "[1]", "value": 19, "unit": "nM"},
      {"measurement": "CE Delta (t + 1 h)", "setting": "[2]", "value": "1 to 7", "unit": "nM"}
    ]}
  ]
}
